Assays:
[1] = xn = mol fraction of the nth substance listed; conditions: 101 kPa, Liquid
[2] = 101 kPa, Liquid

c1ccccc1 [benzene] + O=CN1CCOCC1
[1], x1 = 1
Conditions	mass density [kg/m3]	viscosity [mPa·s]
298.15 K	873.57	0.601
303.15 K	868.24	0.562
313.15 K	857.34	0.493
323.15 K	846.59	0.436
333.15 K	835.75	0.389
343.15 K	824.98	0.354

O=CN1CCOCC1 [N-formylmorpholine]
[2]
Conditions	mass density [kg/m3]	viscosity [mPa·s]
298.15 K	1146.06	7.955
303.15 K	1141.7	6.877
313.15 K	1132.96	5.214
323.15 K	1124.33	4.08
333.15 K	1115.63	3.284
343.15 K	1107.96	2.707
353.15 K	1098.76	2.274

Cc1ccccc1 [toluene]
[2]
Conditions	mass density [kg/m3]	viscosity [mPa·s]
298.15 K	861.65	0.553
303.15 K	857.01	0.522
313.15 K	847.63	0.467
323.15 K	838.23	0.421
333.15 K	828.71	0.381
343.15 K	819.86	0.349
353.15 K	809.68	0.321

Cc1ccccc1 [toluene] + O=CN1CCOCC1
[1], x1 = 1
Conditions	mass density [kg/m3]	viscosity [mPa·s]
298.15 K	861.65	0.553
303.15 K	857.01	0.522
313.15 K	847.63	0.467
323.15 K	838.23	0.421
333.15 K	828.71	0.381
343.15 K	819.86	0.349
353.15 K	809.68	0.321

O=CN1CCOCC1 [N-formylmorpholine] + c1ccccc1
[1]
Conditions	mass density [kg/m3]	viscosity [mPa·s]
298.15 K, x2 = 0	1146.06	7.955
298.15 K, x2 = 0.0977	1124.83	6.078
298.15 K, x2 = 0.198	1101.75	4.597
298.15 K, x2 = 0.2987	1077.06	3.524
298.15 K, x2 = 0.4013	1051.67	2.656
298.15 K, x2 = 0.4983	1027.35	2.051
298.15 K, x2 = 0.599	1001.36	1.602
298.15 K, x2 = 0.6999	970.18	1.234
298.15 K, x2 = 0.802	938.33	0.96
298.15 K, x2 = 0.8967	908.12	0.76
303.15 K, x2 = 0	1141.7	6.877
303.15 K, x2 = 0.0977	1120.44	5.251
303.15 K, x2 = 0.198	1097.28	4.028
303.15 K, x2 = 0.2987	1072.53	3.109
303.15 K, x2 = 0.4013	1046.95	2.376
303.15 K, x2 = 0.4983	1022.6	1.858
303.15 K, x2 = 0.599	996.29	1.456
303.15 K, x2 = 0.6999	965.22	1.13
303.15 K, x2 = 0.802	933.24	0.884
303.15 K, x2 = 0.8967	902.85	0.706
313.15 K, x2 = 0	1132.96	5.214
313.15 K, x2 = 0.0977	1111.6	4.059
313.15 K, x2 = 0.198	1088.31	3.174
313.15 K, x2 = 0.2987	1063.41	2.492
313.15 K, x2 = 0.4013	1037.61	1.946
313.15 K, x2 = 0.4983	1013.15	1.538
313.15 K, x2 = 0.599	986.09	1.217
313.15 K, x2 = 0.6999	955.16	0.962
313.15 K, x2 = 0.802	922.97	0.759
313.15 K, x2 = 0.8967	892.39	0.613
323.15 K, x2 = 0	1124.33	4.08
323.15 K, x2 = 0.0977	1102.85	3.23
323.15 K, x2 = 0.198	1079.44	2.568
323.15 K, x2 = 0.2987	1054.39	2.046
323.15 K, x2 = 0.4013	1028.33	1.614
323.15 K, x2 = 0.4983	1003.64	1.296
323.15 K, x2 = 0.599	975.97	1.037
323.15 K, x2 = 0.6999	945.02	0.826
323.15 K, x2 = 0.802	912.7	0.66
323.15 K, x2 = 0.8967	881.97	0.538
333.15 K, x2 = 0	1115.63	3.284
333.15 K, x2 = 0.0977	1094.03	2.636
333.15 K, x2 = 0.198	1070.44	2.124
333.15 K, x2 = 0.2987	1045.28	1.715
333.15 K, x2 = 0.4013	1018.97	1.371
333.15 K, x2 = 0.4983	993.97	1.11
333.15 K, x2 = 0.599	966	0.898
333.15 K, x2 = 0.6999	934.99	0.721
333.15 K, x2 = 0.802	902.37	0.54
333.15 K, x2 = 0.8967	871.42	0.479
343.15 K, x2 = 0	1107.96	2.707
343.15 K, x2 = 0.0977	1086.23	2.201
343.15 K, x2 = 0.198	1062.45	1.798
343.15 K, x2 = 0.2987	1037.1	1.466
343.15 K, x2 = 0.4013	1010.54	1.183
343.15 K, x2 = 0.4983	985.32	0.966
343.15 K, x2 = 0.599	956.77	0.787
343.15 K, x2 = 0.6999	925.78	0.637
343.15 K, x2 = 0.802	892.86	0.518
343.15 K, x2 = 0.8967	861.54	0.428

c1ccccc1 [benzene]
[2]
Conditions	mass density [kg/m3]	viscosity [mPa·s]
298.15 K	873.57	0.601
303.15 K	868.24	0.562
313.15 K	857.34	0.493
323.15 K	846.59	0.436
333.15 K	835.75	0.389
343.15 K	824.98	0.354
